{"source": "patent US20250171457A1", "about": "“NITROGEN-CONTAINING HETEROCYCLIC COMPOUND HAVING NRF2 ACTIVATION EFFECT” (CHUGAI SEIYAKU KABUSHIKI KAISHA, priority 2022, published 2025)", "data": [{"test_system": "Nrf2 transcriptional activity (pARE-Luc reporter) in HepG2 cells", "test": "In vitro Nrf2 transcriptional activity measurement by ARE-dependent reporter assay in HepG2 cell", "format": "cell-based, human", "conditions": "Homo sapiens; HepG2 cells transfected with pARE-Luc, 4 hours at 37° C.; luciferase activity of Example 1-54 or Example 17-23 at 3.75 μM defined as 100%", "description": "Test Example 1: In Vitro Nrf2 Transcriptional Activity Measurement by ARE-Dependent Reporter Assay in HepG2 Cell\nA human liver cancer-derived cell line HepG2 was transfected with pGL4.37 vector (pARE-Luc, Promega Corp.) and incubated overnight at 37° C. in a humidified atmosphere containing 5% CO2. The cells were dissociated by trypsin treatment, inoculated to a 384-well plate supplemented with a test compound, and incubated at 37° C. for 4 hours. Then, Bright-Glo Reagent (Promega Corp.) was added to the plate, and luciferase activity was measured with Envision plate reader.\nLuciferase activity obtained through the action of the compound of Example 1-54 or Example 17-23 at a concentration of 3.75 μM was defined as 100%. The luciferase activity of each well was converted to a response rate (%). The dose-response curve of the compound of each Example was prepared to calculate a 50% effective concentration (EC50).", "units": {"EC50": "nM"}, "values": [{"smiles": "O=C(O)c1cc(F)c(-c2cccc3c2OCN(C(=O)c2c(Cl)cc(N4CCn5nccc5C4)cc2Cl)C3)cc1N1C2CCC1COC2", "note": "[Compound 1-39]", "EC50": 18}, {"smiles": "COC1CN(c2cc(Cl)c(C(=O)N3COc4c(cccc4-c4cc(N5C6CCC5COC6)c(C(=O)O)cc4F)C3)c(Cl)c2)CCO1", "note": "(stereo not shown) [Compound 1-40, 4-[3-[2,6-Dichloro-4-(2-methoxymorpholin-4-yl)benzoyl]-2,4-dihydro-1,3-benzoxazin-8-yl]-5-fluoro-2-(3-oxa-8-azabicyclo[3.2.1]octan-8-yl)benzoic acid]", "EC50": 3}, {"smiles": "O=C(O)c1cc(F)c(-c2cccc3c2OCN(C(=O)c2c(Cl)cc(N4C5CCC4COC5)cc2Cl)C3)cc1N1C2CCC1COC2", "note": "[Compound 1-41, 4-[3-[2,6-Dichloro-4-(3-oxa-8-azabicyclo[3.2.1]octan-8-yl)benzoyl]-2,4-dihydro-1,3-benzoxazin-8-yl]-5-fluoro-2-(3-oxa-8-azabicyclo[3.2.1]octan-8-yl)benzoic acid]", "EC50": 2}, {"smiles": "C[C@@H]1COCCN1c1cc(Cl)c(C(=O)N2COc3c(cccc3-c3cc(N4C5CCC4COC5)c(C(=O)O)cc3F)C2)c(Cl)c1", "note": "[Compound 1-42, 4-[3-[2,6-Dichloro-4-[(3R)-3-methylmorpholin-4-yl]benzoyl]-2,4-dihydro-1,3-benzoxazin-8-yl]-5-fluoro-2-(3-oxa-8-azabicyclo[3.2.1]octan-8-yl)benzoic acid]", "EC50": 2.6}, {"smiles": "O=C(O)c1cc(F)c(-c2cccc3c2OCN(C(=O)c2c(Cl)cc(N4C5CCCC4COC5)cc2Cl)C3)cc1N1C2CCC1COC2", "note": "[Compound 1-43, 4-[3-[2,6-Dichloro-4-(3-oxa-9-azabicyclo[3.3.1]nonan-9-yl)benzoyl]-2,4-dihydro-1,3-benzoxazin-8-yl]-5-fluoro-2-(3-oxa-8-azabicyclo[3.2.1]octan-8-yl)benzoic acid]", "EC50": 1.8}, {"smiles": "O=C(O)c1cc(F)c(-c2cccc3c2OCN(C(=O)c2c(Cl)cc(N4CC(F)(F)C(F)(F)C4)cc2Cl)C3)cc1N1C2CCC1COC2", "note": "[Compound 1-44, 4-[3-[2,6-Dichloro-4-(3,3,4,4-tetrafluoropyrrolidin-1-yl)benzoyl]-2,4-dihydro-1,3-benzoxazin-8-yl]-5-fluoro-2-(3-oxa-8-azabicyclo[3.2.1]octan-8-yl)benzoic acid]", "EC50": 6.5}, {"smiles": "CN1CCN(c2cc(Cl)c(C(=O)N3COc4c(cccc4-c4cc(N5C6CCC5COC6)c(C(=O)O)cc4F)C3)c(Cl)c2)CC(F)(F)C1", "note": "[Compound 1-45, 4-[3-[2,6-Dichloro-4-(6,6-difluoro-4-methyl-1,4-diazepan-1-yl)benzoyl]-2,4-dihydro-1,3-benzoxazin-8-yl]-5-fluoro-2-(3-oxa-8-azabicyclo[3.2.1]octan-8-yl)benzoic acid]", "EC50": 3.7}, {"smiles": "Cn1cc2c(n1)CN(c1cc(Cl)c(C(=O)N3COc4c(cccc4-c4cc(N5C6CCC5COC6)c(C(=O)O)cc4F)C3)c(Cl)c1)C2", "note": "[Compound 1-46, 4-[3-[2,6-Dichloro-4-(2-methyl-4,6-dihydropyrrolo[3,4-c]pyrazol-5-yl)benzoyl]-2,4-dihydro-1,3-benzoxazin-8-yl]-5-fluoro-2-(3-oxa-8-azabicyclo[3.2.1]octan-8-yl)benzoic acid]", "EC50": 1.9}, {"smiles": "N#CC1CC2(C1)CN(c1cc(Cl)c(C(=O)N3COc4c(cccc4-c4cc(N5C6CCC5COC6)c(C(=O)O)cc4F)C3)c(Cl)c1)C2", "note": "[Compound 1-47, 4-[3-[2,6-Dichloro-4-(6-cyano-2-azaspiro[3.3]heptan-2-yl)benzoyl]-2,4-dihydro-1,3-benzoxazin-8-yl]-5-fluoro-2-(3-oxa-8-azabicyclo[3.2.1]octan-8-yl)benzoic acid]", "EC50": 12}, {"smiles": "CN1CC2CN(c3cc(Cl)c(C(=O)N4COc5c(cccc5-c5cc(N6CCOCC6)c(C(=O)O)cc5F)C4)c(Cl)c3)CC2C1", "note": "(stereo not shown) [Compound 1-48, 4-[3-[2,6-Dichloro-4-(2-methyl-1,3,3a,4,6,6a-hexahydropyrrolo[3,4-c]pyrrol-5-yl)benzoyl]-2,4-dihydro-1,3-benzoxazin-8-yl]-5-fluoro-2-morpholin-4-ylbenzoic acid]", "EC50": 2.3}, {"smiles": "O=C(O)c1cc(F)c(-c2cccc3c2OCN(C(=O)c2c(Cl)cc(N4CCC5(CCOC5)C4)cc2Cl)C3)cc1N1CCOCC1", "note": "(stereo not shown) [Compound 1-49, 4-[3-[2,6-Dichloro-4-(2-oxa-7-azaspiro[4.4]nonan-7-yl)benzoyl]-2,4-dihydro-1,3-benzoxazin-8-yl]-5-fluoro-2-morpholin-4-ylbenzoic acid]", "EC50": 1.9}, {"smiles": "O=C(O)c1cc(F)c(-c2cccc3c2OCN(C(=O)c2c(Cl)cc(N4CCC4=O)cc2Cl)C3)cc1N1CCOCC1", "note": "[Compound 1-50, 4-[3-[2,6-Dichloro-4-(2-oxoazetidin-1-yl)benzoyl]-2,4-dihydro-1,3-benzoxazin-8-yl]-5-fluoro-2-morpholin-4-ylbenzoic acid]", "EC50": 4.6}, {"smiles": "O=C(O)c1cc(F)c(-c2cccc3c2OCN(C(=O)c2c(Cl)cc(N4CCOC4=O)cc2Cl)C3)cc1N1CCOCC1", "note": "[Compound 1-51, 4-[3-[2,6-Dichloro-4-(2-oxo-1,3-oxazolidin-3-yl)benzoyl]-2,4-dihydro-1,3-benzoxazin-8-yl]-5-fluoro-2-morpholin-4-ylbenzoic acid]", "EC50": 10}, {"smiles": "O=C(O)c1cc(F)c(-c2cccc3c2OCN(C(=O)c2c(Cl)cc(N4CCCC4=O)cc2Cl)C3)cc1N1CCOCC1", "note": "[Compound 1-52, 4-[3-[2,6-Dichloro-4-(2-oxopyrrolidin-1-yl)benzoyl]-2,4-dihydro-1,3-benzoxazin-8-yl]-5-fluoro-2-morpholin-4-ylbenzoic acid]", "EC50": 14}, {"smiles": "CS(=O)(=O)C1CN(c2cc(Cl)c(C(=O)N3COc4c(cccc4-c4cc(N5CCOCC5)c(C(=O)O)cc4F)C3)c(Cl)c2)C1", "note": "[Compound 1-53, 4-[3-[2,6-Dichloro-4-(3-methylsulfonylazetidin-1-yl)benzoyl]-2,4-dihydro-1,3-benzoxazin-8-yl]-5-fluoro-2-morpholin-4-ylbenzoic acid]", "EC50": 5}, {"smiles": "O=C(O)c1cc(F)c(-c2cccc3c2OCN(C(=O)c2c(Cl)cc(N4CCN(C5COC5)CC4)cc2Cl)C3)cc1N1CCOCC1", "note": "[Compound 1-55, 4-[3-[2,6-Dichloro-4-[4-(oxetan-3-yl)piperazin-1-yl]benzoyl]-2,4-dihydro-1,3-benzoxazin-8-yl]-5-fluoro-2-morpholin-4-ylbenzoic acid]", "EC50": 1.5}, {"smiles": "CN1CCN(c2cc(Cl)c(C(=O)N3COc4c(cccc4-c4cc(N5CCOCC5)c(C(=O)O)cc4F)C3)c(Cl)c2)CC1", "note": "[Compound 1-56]", "EC50": 1.3}, {"smiles": "CC(C)(O)CN1CCN(c2cc(Cl)c(C(=O)N3COc4c(cccc4-c4cc(N5CCOCC5)c(C(=O)O)cc4F)C3)c(Cl)c2)CC1", "note": "[Compound 1-57, 4-[3-[2,6-Dichloro-4-[4-(2-hydroxy-2-methylpropyl)piperazin-1-yl]benzoyl]-2,4-dihydro-1,3-benzoxazin-8-yl]-5-fluoro-2-morpholin-4-ylbenzoic acid]", "EC50": 1.4}, {"smiles": "O=C(O)c1cc(F)c(-c2cccc3c2OCN(C(=O)c2c(Cl)cc(N4CCN(CCO)CC4)cc2Cl)C3)cc1N1CCOCC1", "note": "[Compound 1-58, 4-[3-[2,6-Dichloro-4-[4-(2-hydroxyethyl)piperazin-1-yl]benzoyl]-2,4-dihydro-1,3-benzoxazin-8-yl]-5-fluoro-2-morpholin-4-ylbenzoic acid]", "EC50": 4.2}, {"smiles": "O=C(O)c1cc(F)c(-c2cccc3c2OCN(C(=O)c2c(Cl)cc(N4CCOCC4)cc2Cl)C3)cc1N1CCOCC1", "note": "[Compound 1-59, 4-[3-(2,6-Dichloro-4-morpholin-4-ylbenzoyl)-2,4-dihydro-1,3-benzoxazin-8-yl]-5-fluoro-2-morpholin-4-ylbenzoic acid]", "EC50": 1.2}, {"smiles": "CN1CCC(N2CCN(c3cc(Cl)c(C(=O)N4COc5c(cccc5-c5cc(N6CCOCC6)c(C(=O)O)cc5F)C4)c(Cl)c3)CC2)CC1", "note": "[Compound 1-60, 4-[3-[2,6-Dichloro-4-[4-(1-methylpiperidin-4-yl)piperazin-1-yl]benzoyl]-2,4-dihydro-1,3-benzoxazin-8-yl]-5-fluoro-2-morpholin-4-ylbenzoic acid]", "EC50": 4.2}, {"smiles": "O=C(O)c1ccc(-c2cccc3c2OCN(C(=O)c2c(Cl)cc(N4CC5(CCCO5)C4)cc2Cl)C3)cc1N1C2CCC1COC2", "note": "[Compound 1-61, 4-[3-[2,6-Dichloro-4-(5-oxa-2-azaspiro[3.4]octan-2-yl)benzoyl]-2,4-dihydro-1,3-benzoxazin-8-yl]-2-(3-oxa-8-azabicyclo[3.2.1]octan-8-yl)benzoic acid]", "EC50": 2.6}, {"smiles": "CC(C)(O)CN1CCN(c2cc(Cl)c(C(=O)N3COc4c(cccc4-c4ccc(C(=O)O)c(N5CCOCC5)c4)C3)c(Cl)c2)CC1", "note": "[Compound 1-62, 4-[3-[2,6-Dichloro-4-[4-(2-hydroxy-2-methylpropyl)piperazin-1-yl)benzoyl]-2,4-dihydro-1,3-benzoxazin-8-yl]-2-morpholin-4-ylbenzoic acid]", "EC50": 3.2}, {"smiles": "CN1CCC(N2CCN(c3cc(Cl)c(C(=O)N4COc5c(cccc5-c5ccc(C(=O)O)c(N6CCOCC6)c5)C4)c(Cl)c3)CC2)CC1", "note": "[Compound 1-63, 4-[3-[2,6-Dichloro-4-[4-(1-methylpiperidin-4-yl)piperazin-1-yl]benzoyl]-2,4-dihydro-1,3-benzoxazin-8-yl]-2-morpholin-4-ylbenzoic acid]", "EC50": 2.1}, {"smiles": "CN1CCN(c2cc(Cl)c(C(=O)N3COc4c(cccc4-c4ccc(C(=O)O)c(N5CCOCC5)c4)C3)c(Cl)c2)CC1", "note": "[Compound 1-64, 4-[3-[2,6-Dichloro-4-(4-methylpiperazin-1-yl)benzoyl]-2,4-dihydro-1,3-benzoxazin-8-yl]-2-morpholin-4-ylbenzoic acid]", "EC50": 3}]}]}
